Reference: BindingDB's records for doi:10.7270/Q2D50KC1 (The Scripps Research Institute Molecular Screening Center, 2007)

Each molecule was assayed against Sphingosine 1-phosphate receptor 3 (Homo sapiens, UniProt Q99500) (assay: S1P3 receptor NFAT-BLA reporter inhibition, dose response, counter-screen for 5HT1E antagonist project, CHO cells, Ga15, NFAT beta-lactamase, FRET (AID 776)).
Chain of Sphingosine 1-phosphate receptor 3 (Q99500 whole entry): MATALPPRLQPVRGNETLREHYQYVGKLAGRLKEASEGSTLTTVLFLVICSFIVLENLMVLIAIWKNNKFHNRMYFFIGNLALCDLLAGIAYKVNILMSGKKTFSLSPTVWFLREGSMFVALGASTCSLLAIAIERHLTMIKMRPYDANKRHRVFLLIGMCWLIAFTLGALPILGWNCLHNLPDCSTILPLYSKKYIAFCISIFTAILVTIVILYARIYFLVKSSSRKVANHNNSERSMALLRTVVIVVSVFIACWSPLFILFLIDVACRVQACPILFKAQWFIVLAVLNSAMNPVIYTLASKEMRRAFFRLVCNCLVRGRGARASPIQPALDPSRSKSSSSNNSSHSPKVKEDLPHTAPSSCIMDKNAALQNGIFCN

IC50 [µM]	Compound
> 12.4	CCC(NC(=O)Nc1nnc(C(F)(F)F)s1)(C(F)(F)F)C(F)(F)F
3.51	CS(=O)(=O)c1nc(-c2ccccc2)cc(C(F)(F)F)n1 [MLS000044644]
1.42	COC(=O)/C(=C1/Oc2cc(C)oc(=O)c2S1)C(F)(F)F [methyl (2E)-3,3,3-tris(fluoranyl)-2-(6-methyl-4-oxidanylidene-[1,3]oxathiolo[4,5-c]pyran-2-ylidene)propanoate]
> 39	COc1cc(NS(=O)(=O)c2ccc(C)cc2)c2ncccc2c1 [SMR000071147]
> 50	CC(C)=CCC(C)(C)CNC(=O)NC1CCCCC1
> 39	CCCOCCOC(=O)c1[nH]c2c(c1C)C(=O)CC(c1cc(OC)ccc1OC)C2 (stereo not drawn)
3.45	CS(=O)(=O)c1nc(-c2cccs2)cc(C(F)(F)F)n1 [MLS000044645]
> 17.7	COc1cc2c(cc1OC)-c1cc(N3CCCc4ccccc43)nc(=O)n1CC2 [2-(3,4-dihydro-2H-quinolin-1-yl)-9,10-dimethoxy-6,7-dihydropyrimido[6,1-a]isoquinolin-4-one]
2.33	O=S1(=O)C=C(Sc2nnc(-c3ccccc3)o2)c2ccccc21
7.55	Clc1ccc(-n2nnnc2Sc2ncnc3sccc23)cc1 [SMR000066808]
4.69	N#C/C(=C/c1ccc(N2CCCCCC2)o1)c1ccc(F)cc1 [MLS000051438]
> 50	COc1cc2c(cc1OC)C1=C(C#N)CC=C(NS(=O)(=O)c3ccccc3)N1CC2 [SMR000092093]
> 12.4	CCOc1ccc(C2=Nn3c(nnc3-c3ccccc3OC)SC2)cc1 [6-(4-ethoxyphenyl)-3-(2-methoxyphenyl)-7H-[1,2,4]triazolo[3,4-b][1,3,4]thiadiazine]
> 50	COC(=O)Nc1nc2ccc(Sc3ccccc3)cc2[nH]1 [FENBENDAZOLE]
> 50	COc1ccc(-n2c(O)cc(NCc3ccncc3)c2O)cc1 [MLS000099014]
4.33	CSc1ccccc1NC=C1C(=O)CC(C)(C)CC1=O [SMR000111352]
> 50	COCCOC(=O)c1[nH]c2c(c1C)C(=O)CC(c1ccccc1)C2 (stereo not drawn) [SMR000025505]
0.934	COc1cccc(N2CCN(c3ncnc4c3[nH]c3ccc(F)cc34)CC2C)c1 (stereo not drawn) [8-fluoranyl-4-[4-(3-methoxyphenyl)-3-methyl-piperazin-1-yl]-5H-pyrimido[5,4-b]indole]
> 17.7	CCOc1cccc(-c2nnc3n2N=C(c2cc(OC)ccc2OC)CS3)c1 [MLS000081451]

IC50 [µM]	Compound
> 50	CCCc1nnc2n1N=C(c1ccc(OC)c(OC)c1)CS2 [SMR000057783]
5.18	COc1ccc(-c2cc(C(F)(F)F)nc(S(C)(=O)=O)n2)cc1OC [4-(3,4-dimethoxyphenyl)-2-methylsulfonyl-6-(trifluoromethyl)pyrimidine]
> 39	Cc1ccc(S(=O)(=O)Nc2cccc3ncccc23)s1 [5-methyl-N-quinolin-5-ylthiophene-2-sulfonamide]
1.68	CCN(CC)c1ccc2c(Cl)c(Br)c(=O)oc2c1
7.56	CC(=O)Oc1ccc(-n2c(O)c3c(c2O)C2(C)C=CC3(C)O2)cc1 [MLS000107813]
3.33	N#CCCS(=O)(=O)c1nnnn1-c1ccccc1 [3-(1-phenyltetrazol-5-yl)sulfonylpropanenitrile]
> 50	Cc1ccc(N(CC2=NCCN2)c2cccc(O)c2)cc1 [SMR000059054]
> 50	O=C(Nc1ccc(-c2nc3ncccc3o2)cc1)c1ccc(Br)o1
4.3	COc1cccc(N2CCN(c3ncnc4c3[nH]c3ccccc34)CC2C)c1 (stereo not drawn) [4-[4-(3-methoxyphenyl)-3-methyl-1-piperazinyl]-5H-pyrimido[5,4-b]indole]
2.04	Cn1c(-c2c(N)n(C3CCCC3)c3nc4ccccc4nc23)nc2ccccc21 [1-cyclopentyl-3-(1-methyl-2-benzimidazolyl)-2-pyrrolo[3,2-b]quinoxalinamine]
4.32	COc1ccc(-n2nnnc2S(=O)(=O)CC(=O)N2CCCCC2)cc1 [2-[1-(4-methoxyphenyl)tetrazol-5-yl]sulfonyl-1-piperidin-1-ylethanone]
> 50	CCCOc1ccc2nc(NC(=O)OC)[nH]c2c1 [SMR000058208]
> 12.4	O=C(Nc1ccc(N2CCOCC2)cc1)Nc1ccc2nc(-c3ccco3)c(-c3ccco3)nc2c1 [N-(2,3-di-2-furyl-6-quinoxalinyl)-N'-[4-(4-morpholinyl)phenyl]urea]
> 12.4	CCn1c(=O)c(C(=O)Nc2nc3ccccc3[nH]2)c(O)c2ccccc21 [MLS000027148]
4.88	CS(=O)(=O)c1nc(-c2ccco2)cc(C(F)(F)F)n1 [MLS000044646]
> 50	COc1ccccc1-c1nnc2n1N=C(c1ccc(O)c(O)c1)CS2 [(4E)-4-[3-(2-methoxyphenyl)-5H-[1,2,4]triazolo[3,4-b][1,3,4]thiadiazin-6-ylidene]-2-oxidanyl-cyclohexa-2,5-dien-1-one]
5.78	Cc1ccc(-n2nc3c([n+]2[O-])CCc2c-3n[o+]n2[O-])cc1 [7-(4-methylphenyl)-3,6-dioxido-4,5-dihydrotriazolo[4,5-e][2,1,3]benzoxadiazole-3,6-diium]
5.06	COc1cccc(N2CCN(c3ncnc4c3cnn4-c3ccc(C)cc3C)CC2)c1 [SMR000017007]
> 50	COc1ccc(C2N(c3ccc(F)cc3)C(=O)C3CCCN32)cc1 (stereo not drawn) [SMR000094164]

Compound	IC50 [µM]
CC(=O)Nc1cc(OC(C)=O)c2nonc2c1OC(C)=O [Acetic acid 7-acetoxy-5-acetylamino-benzo[1,2,5]oxadiazol-4-yl ester]	1.82
CCn1nc(-c2ccccc2)nc2c(=O)n(C)c(=O)nc1-2 [1-Ethyl-6-methyl-3-phenyl-1H-pyrimido[5,4-e][1,2,4]triazine-5,7-dione]	1.08
CN(C)c1nc(OCCNC(=O)COc2ccc(Cl)cc2Cl)nc(N2CCCCC2)n1 [SMR000072558]	> 50
CCn1nc(-c2cccs2)nc2c(=O)n(C)c(=O)nc1-2 [1-ethyl-6-methyl-3-thiophen-2-yl-pyrimido[5,4-e][1,2,4]triazine-5,7-dione]	0.815
OCC12C=CC(O1)c1c2c(O)n(-c2ccc(-c3ccccc3)cc2)c1O (stereo not drawn)	> 12.4
